Key:
Assay type in all cases: in vivo
[1] = Total body water (TBW) deuterium enrichment in people
[2] = Total body water (TBW) deuterium enrichment in mice
Text: In one aspect, deuterium labeling was achieved by intraperitoneal injection of 100% ^2H2O with NaCl added to make this fluid isotonic, then maintaining the achieved 5% ^2H enrichment in total body water (TBW) by providing 8% ^2H2O in drinking water to mice. Deuterium within total body water diffuses rapidly into all tissues and is excreted unchanged by the kidneys. Therefore, according to various embodiments, deuterium labeled fluids may be provided to an animal or human subject via injected and/or ingested fluid yielding a deuterium concentration of about 5% TBW. […] Higher TBW enrichments (up to 20% TBW ^2H) may improve sensitivity of dMRI detection. Such enrichments should be safe, as deuterium is non-radioactive, tasteless, colorless and without known side effects at these doses.
FIG. 9 is an illustration for one embodiment of a scheme 900 for labeling and imaging rapidly dividing cells. As shown, the method begins with total body irradiation (TBI) conditioning performed one day prior to the infusion of a transplant graft (day −1), indicated as 902. In the embodiment shown, the bone marrow transplant (BMT) graft, containing bone marrow stem cells and T cells from the donor spleen, is infused on day 0, indicated as 904. […]
For measuring ^2H2O water levels in TBW (e.g. urine), we developed a simple and quantitative headspace-GC-NCI-MS method (publication pending). […]

[3] = Safety of deuterium enrichment in total body water

Compound: [2H]O[2H] [deuterated water]
- time for TBW deuterium enrichment to return to baseline (0.015%) after supplementation is discontinued [1]: ~14 days
- time for TBW deuterium enrichment to return to baseline (0.015%) after supplementation is discontinued [2]: approximately 7 days
- toxicity ([3]; doses up to 20% in total body water): non-toxic
- safety of higher TBW enrichment ([3]; enrichments up to and including approximately 20% TBW): safely achieved
- effect on rates of DNA synthesis ([3]; in vivo): does not affect rates of DNA synthesis

Source: patent publication US11684306B2, “Stable water isotope labeling and magnetic resonance imaging for visualization of the presence of and prediction of the likelihood of occurence of rapidly dividing cells” (THE UNITED STATES OF AMERICA, AS REPRESENTED BY THE …, priority 2016, dated 2023)
